# Measurements reported in publication PMC5848165 (Toxins, 2018).
# pIC50: −log10 of the molar value. Residues, ends and D or L forms follow the SMILES beside them.
# Columns and labels:
# [1] = system: chimera #1, Nav1.5 (Nav1.7-DII-S3-S4); test: Whole-cell patch clamp, chimera #1 in HEK293 cells; type: cell-based, rat Nav1.5 / human Nav1.7; conditions: −10 mV from −80 mV
# Source text: Many animal toxins alter activation or inactivation of sodium channels by binding to the S3–S4 regions of channels, which are probably the external linkers or voltage sensors of sodium channels. α-Scorpion toxins slow down fast-inactivation of sodium channels by binding to the extracellular linker loop of DIVS3-S4 (neurotoxin site 3). Meanwhile, β-scorpion toxins that interact with DIIS3-S4 linker enhance the activation of sodium channels by trapping DII voltage sensor in an activated state. As Nav1.5 channel is resistant to the inhibition of JZTX-34, we investigated the binding site of JZTX-34 to Nav1.7 by constructing chimeric channels between Nav1.5 and Nav1.7. […]
# (§1) The HEK293T cells were maintained in standard culture conditions (5% CO2 and 37 °C). […] After culturing for 36–72 h, cells with obvious green fluorescence were selected for sodium currents recordings the internal solution for sodium currents recording that contained (in mM) 140 CsF, 5 NaCl, 10 HEPES, 3 Na2-ATP, and 10 EGTA. […]
# (§2) Sodium currents were recorded from DRG, HEK293, and ND cells by the whole-cell patch-clamp technique at 25 °C. […] Experiments date were acquired from whole-cell Axon 700B patch clamp amplifier (Molecular Devices, Sunnyvale, CA, USA) and analyzed by the program Clampfit10.0 (Molecular Devices, Sunnyvale, CA, USA) and Sigmaplot. […]
# [2] = system: TTX-S sodium channels from rat DRG neurons; test: Whole-cell patch clamp, TTX-S sodium currents in rat DRG neurons; type: cell-based, rat (Sprague-Dawley); conditions: 25 °C
# [3] = system: Nav1.2; test: Whole-cell patch clamp, Nav1.2 in HEK293 cells; type: cell-based, rat; conditions: 1 µM, −10 mV from −80 mV
# Source text: Nine sodium channel subtypes have been identified and classified as TTX-S (Nav1.1–Nav1.4, Nav1.6, and Nav1.7) or TTX-R types (Nav1.5, Nav1.8, and Nav1.9). […] However, the subtype selectivity of JZTX-34 on the subtype of sodium channel is still unknown. In this work, effects of JZTX-34 on VGSC subtypes (Nav1.1–Nav1.8) were examined. Nav1.1–Nav1.7 were transfected into HEK293 cells and Nav1.8 currents were expressed in ND cells. Inward sodium currents were elicited by a 50 ms depolarizing potential to −10 mV from a holding potential of −80 mV every 5 s. […] No effects on other sodium channel subtypes were found (Nav1.1, Nav1.2, Nav1.4–Nav1.6, and Nav1.8) (Figure S2). […]
# as §1, §2
structure (smiles),measurement,setting,value
"CC(C)C[C@@H]1NC(=O)[C@H](Cc2c[nH]c3ccccc23)NC(=O)[C@H](CCC(=O)O)NC(=O)[C@H](CCCNC(=N)N)NC(=O)[C@@H](NC(=O)[C@H](C)N)CSSC[C@@H]2NC(=O)[C@@H]3CSSC[C@@H](C(=O)N[C@H](C(=O)N[C@@H](Cc4c[nH]c5ccccc45)C(=O)N[C@@H](CC(=O)O)C(=O)N[C@@H](Cc4c[nH]c5ccccc45)C(=O)N[C@H](C(=O)N[C@H](C(=O)O)C(C)C)[C@@H](C)O)C(C)C)NC(=O)[C@H](Cc4c[nH]cn4)NC(=O)[C@H](Cc4ccc(O)cc4)NC(=O)[C@@H]4CCCN4C(=O)[C@H](Cc4c[nH]c5ccccc45)NC(=O)[C@H](CCCCN)NC(=O)[C@H](CCCCN)NC(=O)[C@H](CCCNC(=N)N)NC(=O)[C@H](CSSC[C@H](NC(=O)CNC(=O)CNC1=O)C(=O)N[C@@H](CO)C(=O)N[C@@H](CCCCN)C(=O)N[C@@H](CC(=O)O)C(=O)N[C@@H](C)C(=O)N[C@@H](CC(=O)O)C(=O)N3)NC(=O)[C@H](CCC(=O)O)NC(=O)[C@H](CC(C)C)NC(=O)[C@H](Cc1c[nH]cn1)NC(=O)[C@H](C)NC2=O [JZTX-34, Jingzhaotoxin-34] (HELM PEPTIDE1{A.C.R.E.W.L.G.G.C.S.K.D.A.D.C.C.A.H.L.E.C.R.K.K.W.P.Y.H.C.V.W.D.W.T.V}$PEPTIDE1,PEPTIDE1,2:R3-16:R3|PEPTIDE1,PEPTIDE1,9:R3-21:R3|PEPTIDE1,PEPTIDE1,15:R3-29:R3$$$V2.0; N-terminus and C-terminus assumed)",inhibition of chimera #1 currents,[1]; 1 µM,47.6 ± 3.6%
same,inhibition of chimera #1 currents,[1]; 10 µM,79.5 ± 2.8%
same,inhibition of TTX-S sodium currents,"[2]; 1 µM synthetic JZTX-34, 50 ms depolarization to −10 mV from −80 mV",~ 81%
same,pIC50,"[2]; synthetic toxin, Hill fit, n = 5, −10 mV from −80 mV holding",7.04
same,effect on Nav1.2 currents,[3],No effects
